Legend:
colon fibroblasts [1] = test: Oxidative DNA damage by 8-OHdG immunofluorescence in fibroblasts; assay type: cell-based, mouse; conditions: recombinant IL-1α 1 μg/mL, 72 hours
Method: (§1) (A) Schematic illustration of APTKA organoids supernatant collection and treatment of colon fibroblasts from unchallenged wildtype C57BL/6 mice for 12 h followed by 3×2 Gy irradiation. Microscopic, proteomic & transcriptomic analysis were performed 72 h post first irradiation. (B) Microscopic captures of non-irradiated wildtype (WT) and APTKA conditioned fibroblasts. Remaining captures belong to irradiated fibroblasts: WT, IL-1α (1 μg/mL) stimulated WT, and APTKA conditioned media minus or plus anakinra (20 μg/mL) treated fibroblasts. Scale bars=200 μm. (C) Mass spectrometric analysis of matrisome profiles of 3×2 Gy irradiated (n=8) and non-irradiated (n=8) APTKA conditioned fibroblasts. […] (G) Immunoblot analysis of untreated and irradiated APTKA conditioned fibroblasts. Representative results from one experiment which has been independently repeated 2 times. (H) SA-ß gal staining of untreated and irradiated APTKA fibroblasts. Scale bars=100 μm. (I and J) p21 and pH2AX immunofluorescent staining of untreated and irradiated APTKA fibroblasts. Scale bars=[…]. Data are mean±SD. ** […] and *** p<0.001 by t-test. (K) Nitrite concentration determined by Griess assay in conditioned media from WT, APTK media, APTKA media, IL-1α (1 μg/mL) stimulated and APTKA plus anakinra (20 μg/mL) treated fibroblasts for 72 h (n=10 independent wells per group). […]

colon fibroblasts [2] = test: Nitrite concentration by Griess assay in fibroblast supernatants; assay type: cell-based, mouse; conditions: recombinant IL-1α 1 μg/mL, 72 hours
Method: as §1

human fibroblasts = test: Nitrite concentration by Griess assay in human fibroblast supernatants; assay type: cell-based; conditions: IL-1α 1 μg/mL only, 72 h
Text: (§2) (A and B) Quantification of IL-1 and IL-1RA baseline serum levels in non-pCR (n=25) and pCR (n=7) patients before CRT. Data are mean±SD. ** p<0.01 by t-test. (C) IL-1RA serum level association with two SNPs: rs4251961 (T/C) and rs579543 (A/G) using DNA isolated from patients (n=31) pre-CRT peripheral blood mononuclear cells. Data are mean±SD. ** p=0.0052 by t-test. (D) Kaplan-Meier DFS curve of patients with high (n=37) and low (n=37) IL-1RN expression score (median split) based on the RNA sequencing data of pre-CRT biopsies. * p<0.05 by Log-rank (Mantel-Cox) test. […] (H) Paired analysis of sirius red staining of non-pCR patients (n=11) pre versus post-CRT. Scale bars=300 μm. (I) Paired quantification of p21 immunohistochemistry staining of non-pCR patients (n=10) pre versus post CRT. (J) Correlation analysis of pre-CRT serum IL-1RA levels with ratio of p21 induction (post/pre-CRT p21 RNA expression level) (n=10 non pCR patients). * p<0.05 by Spearman r correlation test. […] (M) Nitrite concentration determined by Griess assay in supernatants from WT, IL-1RA high & IL-1RA low conditioned media treated human fibroblasts for 72 h (n=13 independent wells per group). […] (N) Nitrite concentration determined by Griess assay in supernatants from untreated and IL-1α (1 μg/mL) stimulated human fibroblasts for 72 h (n=32 independent wells per group representing 3 independent experiments). […]

[3] = tested on: human intestinal fibroblasts; test: SA-β-gal staining of irradiated (3×2 Gy) fibroblasts pre-conditioned with IL-1RA low organoid medium; assay type: cell-based; conditions: IL-1RA low conditioned medium, anakinra 20 μg/mL, 72 h
Text: as §2

| Substance | oxidative DNA damage (8-OHdG immunofluorescence) (colon fibroblasts [1]) | nitrite levels in fibroblast supernatants (colon fibroblasts [2]) | nitrite production by fibroblasts (human fibroblasts) | senescence induction upon irradiation (SA-β-gal staining) [3] |
| --- | --- | --- | --- | --- |
| recombinant IL-1α: recombinant cytokine used to stimulate fibroblasts | increase in oxidative DNA damage | significantly elevated | higher nitrite production by fibroblasts |  |
| anakinra: Kineret®, an interleukin-1 receptor antagonist |  |  |  | could be blocked by anakinra |
